Experiments:
[1] = test system: probiotic bacteria (Lactobacillus species); assay: Effect of EGCG on growth of probiotic bacteria (OD 600 nm); type: cell-based; settings: 0.1% EGCG in media, vs control without EGCG
From the text: (§1) FIG. 1. Effect of EGCG on growth of probiotic and pathogenic bacterial species. The growth was monitored by inoculating a 5% inoculum of respective bacterial species into media containing 0.1% of EGCG. Growth was compared to that of control (without EGCG) to determine the influence of EGCG by spectrophotometric method (600 nm). Lactobacillus rhamnosus (LR); Lactobacillus fermentum (LF); Lactobacillus planatarum (LP); Escherichia coli (EC; MTCC 43); Salmonella typhi (ST; MTCC 733); Pseudomonas aeruginosa (PS; MTCC 424); Staphylococcus aureus (SA; MTCC 96); Klebsiella pneumoniae (K; MTCC 109); Shigella flexneri (SF; MTCC 1457); Vibrio cholera (VC; MTCC 3904).
(§2) To test prebiotic efficacy, the effect of EGCG on growth of probiotic bacteria (Lactobacillus species) and pathogenic bacteria [Escherichia coli (EC); Salmonella typhi (ST); Pseudomonas (PS); Staphylococcus aureus (SA); Klebsiella (K); Shigella flexneri (SF); Vibrio cholera (VC)] was assessed. The probiotic bacteria were isolated, identified and characterized while the pathogenic bacteria were procured from MTCC, Chandigarh.

pathogenic bacteria = assay: Effect of EGCG on growth of pathogenic bacteria (OD 600 nm); type: cell-based; settings: 0.1% EGCG in media, vs control without EGCG
From the text: as §1, §2

splenocytes = assay: Flow cytometric analysis of splenocyte T cell sub-populations and activation status in aging animals; type: in vivo, swiss albino mice; settings: 16 months old mice, oral supplementation 30 days
Procedure: The probiotic Lactobacillus, EGCG or a combination of the two were orally administered to aged animals for 31 days before sacrificing and subsequent analysis of various immune and oxidative stress associated parameters.
Effect of synbiotics supplementation on T cells sub-population of aging animals. Animals were fed with respective diets for 31 days following which splenocytes were analyzed by flow cytometry. (A) %CD3+ cells (B) %NK cells and (C) %NKT cells. Bars with different letter indicate significant difference at p<0.05.
Effect of synbiotics supplementation on activation status of T cells sub-population of aging animals. Animals were fed with respective diets for 31 days following which splenocytes were analyzed by flow cytometry. (A) Activated T cells (B) Activated NK cells and (C) Activated NKT cells. Bars with different letter indicate significant difference at p<0.05.
The synbiotic composition of EGCG and probiotic Lactobacillus sp was assessed for effects on cellular immune response using aging murine model. Animals (16 months old) were randomized into four groups of six mice each: 1 control group and 3 experimental groups comprising of either only EGCG (PRE), probiotic Lactobacillus sp (PRO) or a combination of both (SYN). All animals were fed on commercially available pelleted mice chow (Golden feeds, New Delhi, India) and water ad libitum. The experimental animal groups were each supplemented with EGCG (@100 mg/kg/animal/day), probiotic Lactobacilli sp (10^8 cfu/ml) or a combination of both above (synbiotic) respectively for 30 consecutive days. At the end of the feeding regimen, the animals were sacrificed for various immunological and antioxidative analysis.

O=C(O[C@@H]1Cc2c(O)cc(O)cc2O[C@@H]1c1cc(O)c(O)c(O)c1)c1cc(O)c(O)c(O)c1 [EGCG, Epigallocatechin gallate]
average decrease in growth of probiotics ([1]; 5% inoculum, average over probiotic species): 14.05%
decrease in growth of probiotics, Max ([1]; maximum among probiotic species): 31%
decrease in growth of probiotics, Min ([1]; minimum among probiotic species): 1.4%
average growth inhibition of pathogens (pathogenic bacteria; 5% inoculum, average over all pathogens): 52.05%
growth inhibition of pathogens, Max (pathogenic bacteria; maximum among pathogens): 89.88%
growth inhibition of pathogens, Min (pathogenic bacteria; minimum among pathogens): 32.7%
natural killer T cells (NKT) subpopulation (splenocytes): no significant difference
activation of NK cells (splenocytes; vs control group): decrease
activation status of NKT cells (splenocytes; vs control group): no changes
numbers of natural killer cells (NK) (splenocytes; vs control group): appeared to decrease
